Test results reported in patent publication US20220251124A1, “3,5-BIS(PHENYL)-1H-HETEROARYL DERIVATIVES AS MEDICAMENTS” (INSTITUTE OF BIOTECHNOLOGY CAS, V.V.I., priority 2019, published 2022).

What was measured:
Assay type in all cases: cell-based
MCF7 = test: mitochondrial ROS, mitoSOX probe, flow cytometry
Protocol: (§1) The effect of compound 1 on generation of mitochondrial reactive oxygen species (ROS) was evaluated in MCF7 and MDA-MB-231 cells using a specific mitochondrially targeted probe mitoSOX (ThermoFisher Scientific) that measures mostly mitochondrial superoxide and upon binding becomes fluorescent. Cells treated with compound 1 for the described time interval were stained with the probe and then analyzed via Flow cytometry.

MDA-MB-231 [1] = test: mitochondrial ROS, mitoSOX probe, flow cytometry
Protocol: as §1

[2] = tested on: MCF7 cells stably transfected with KEIMA; test: mitophagy induction, KEIMA reporter; conditions: 24 hours
Protocol: (§2) The effect of compounds 1 and 2 on mitophagy induction was assessed in MCF7 and MDA-MB-231 cells using the reporter protein KEIMA. The excitation spectra of KEIMA changes according to the mitochondrial pH, having an excitation peak at 440 nm atr pH>6 and at 586 at pH<5, with a second excitation peak remaining constant at 620 nm. Therefore, a decrease in the 440 nm/586 nm fluorescence ratio indicates mitochondrial acidification. MCF7 and MDA-MB-231 cells stably transfected with KEIMA were incubated with compound 1 for 24 hours and their fluorescence at both excitation wavelengths was measured by flow cytometry.

[3] = tested on: MDA-MB-231 cells stably transfected with KEIMA; test: mitophagy induction, KEIMA reporter; conditions: 24 hours
Protocol: as §2

[4] = tested on: tamoxifen resistant T47D (Tam5R); test: crystal violet assay, tamoxifen resistant cells; conditions: Homo sapiens, T47D Tam5R grown in the presence of 5 μM tamoxifen
Protocol: (§3) Compound 1 and a comparative compound deferasirox (DFX) were tested in their efficacy to kill/suppress proliferation of malignant breast cancer MCF7 cells representing estrogen-dependent type of breast cancer. Briefly, 10.000 cells per well were seeded in a 96-well plate on one day and the next day the tested compounds were added and incubated with the cells for 48 hrs. The cells were then fixed with 4% paraformaldehyde, stained with 0.05% crystal violet, washed with PBS, and solubilized in 1% SDS. The absorbance of the plate at 595 nm was then measured, quantifying the number of viable cells.
To test whether compound 1 is active against resistant cancer cells, we used tamoxifen-resistant MCF7, T47D. The IC50 values were again measured with the crystal violet assay performed as in example 12. We have documented that there is a significant difference in the ability of compound 1 to induce cytostatic and cytotoxic effects between the parental cells sensitive to tamoxifen and the resistant ones that grow even in the presence of tamoxifen (Table 11), yet the IC50 values are still in the nM range, making this compound very efficient.

UPF1H leukemia cell line = test: AnnexinV/PI assay, cell death induction, 48 hrs
Protocol: (§4) This effect seems to be based mainly on the cytostatic effect of compound 1. To define the ability to kill cells, cell death-inducing potency (cytotoxic efficacy) of DFX and compound 1 have been tested via annexin V/PI staining commonly used as a measure of apoptotic/necrotic cell death. Briefly, cells were seeded in 12-well plate at 100,000 per well, incubated with the selected compounds for 48 hours, then floating cells were spun, adherent cells trypsinized and spun as well followed by the staining with AnnexinV-FITC and PI probes. Cells were then washed with PBS and measured via Fluorescence Activated Sorter.
(§5) This effect seems to be based mainly on the cytostatic effect of compound 1. To define the ability to kill cells, cell death-inducing potency (cytotoxic efficacy) of DFX and compound 1 have been tested via annexin V/PI staining commonly used as a measure of apoptotic/necrotic cell death (see example 15). […] Compound 1 killed cancer cells with effects higher by almost 3 orders of magnitude than those of deferasirox. Such results are unprecedented and very unexpected.

[5] = tested on: UPF16A leukemia cell line; test: AnnexinV/PI assay, cell death induction, 48 hrs
Protocol: as §4, §5

UPF9T leukemia cell line = test: AnnexinV/PI assay, cell death induction, 48 hrs
Protocol: as §4, §5

UPF4D leukemia cell line = test: AnnexinV/PI assay, cell death induction, 48 hrs
Protocol: as §4, §5

MCF7 cells = test: oxygen consumption rate (OCR), Seahorse XFe96; conditions: for Oxygen consumption rate, Basal / Oxygen consumption rate, Maximal / Oxygen consumption rate, Proton-leak: MCF7
Protocol: For Seahorse analysis, 20.000 cells were seeded in 96 well plates and added immediately before measurement (addition, Table 6) or incubated with compound 1 for 1 hour (preincubation, Table 7). Afterwards, oxygen consumption rate (OCR) was measured in three cycles of 3 minutes preceded by 3 minutes of mixing, using a Seahorse XFe96 analyzer (Agilent). Results express the mean values of the three cycles.

cancer cell lines = test: crystal violet assay, cancer cell lines overall; conditions: as seen in previous tables
Protocol: as §3

MDA-MB-231 [6] = test: cell cycle distribution, Vybrant DyeCycle Violet, flow cytometry; conditions: 1 μM
Protocol: In order to define the effect on cellular level, we investigated the effect of compound 1 and 2 at non-cytotoxic concentrations of the drugs (1 μM) on cell cycle. Cells were cultivated with the compounds for 24 and 48 hrs and then stained with Vybrant DyeCycle VioletReady Flow reagent (ThermoFisher Scientific) that binds to DNA and analyzed by Flow cytometry and Kaluza program to define the proportions of G1,S and G2/M phases of cell cycle. It is evident that both compounds lead to accumulation of cells in G1 phase if the cell cycle, which become more prominent at later time points (see Table 12, 13).

O=C(NCCCCCCCCCC[P+](c1ccccc1)(c1ccccc1)c1ccccc1)c1ccc(-n2nc(-c3ccccc3O)nc2-c2ccccc2O)cc1 [Compound 1, (10-(4-(3,5-bis(2-hydroxyphenyl)-1H-1,2,4-triazol-1-yl)benzamido)decyl) triphenylphosphonium Chloride]
MitoSOX mean fluorescence (MCF7; 5 min, MCF7 (0 min = 100)): 176.5 (15.0) | MitoSOX mean fluorescence (MCF7; 10 min, MCF7): 177.6 (26.1) | MitoSOX mean fluorescence (MCF7; 15 min, MCF7): 191.6 (47.0) | MitoSOX mean fluorescence (MCF7; 30 min, MCF7): 230.8 (85.2) | MitoSOX mean fluorescence (MCF7; 60 min, MCF7): 235.9 (99.3) | MitoSOX mean fluorescence (MCF7; 120 min, MCF7): 171.1 (17.6) | MitoSOX mean fluorescence (MCF7; 180 min, MCF7): 165.4 (8.9) | MitoSOX mean fluorescence (MCF7; 240 min, MCF7): 207.7 (18.5) | MitoSOX mean fluorescence (MDA-MB-231 [1]; 5 min, MDA-MB-231 (0 min = 100)): 134.7 (36.9) | MitoSOX mean fluorescence (MDA-MB-231 [1]; 10 min, MDA-MB-231): 196.7 (41.5) | MitoSOX mean fluorescence (MDA-MB-231 [1]; 15 min, MDA-MB-231): 284.7 (103.2) | MitoSOX mean fluorescence (MDA-MB-231 [1]; 30 min, MDA-MB-231): 379.1 (76.9) | MitoSOX mean fluorescence (MDA-MB-231 [1]; 60 min, MDA-MB-231): 439.1 (83.0) | MitoSOX mean fluorescence (MDA-MB-231 [1]; 120 min, MDA-MB-231): 588.2 (14.11) | MitoSOX mean fluorescence (MDA-MB-231 [1]; 180 min, MDA-MB-231): 560.8 (27.5) | MitoSOX mean fluorescence (MDA-MB-231 [1]; 240 min, MDA-MB-231): 612.5 (37.5) | KEIMA 440 nm/586 nm fluorescence ratio ([2]; 1.5 μM): 1.01 (0.14) | KEIMA 440 nm/586 nm fluorescence ratio ([2]; 2.5 μM): 0.99 (0.13) | KEIMA 440 nm/586 nm fluorescence ratio ([2]; 5 μM): 0.86 (0.15) | KEIMA 440 nm/586 nm fluorescence ratio ([2]; 10 μM): 0.71 (0.25) | KEIMA 440 nm/586 nm fluorescence ratio ([3]; 1.5 μM): 0.81 (0.02) | KEIMA 440 nm/586 nm fluorescence ratio ([3]; 2.5 μM): 0.81 (0.03) | KEIMA 440 nm/586 nm fluorescence ratio ([3]; 5 μM): 0.76 (0.10) | KEIMA 440 nm/586 nm fluorescence ratio ([3]; 10 μM): 0.50 (0.04) | IC50 [4]: 0.112 µM | dead cells (AnnexinV/PI) (UPF1H leukemia cell line; 0.1 μM): 85.3 (10.9) % | dead cells (AnnexinV/PI) (UPF1H leukemia cell line; 1 μM): 98.3 (0.6) % | dead cells (AnnexinV/PI) ([5]; 0.1 μM): 45.4 (16.2) % | dead cells (AnnexinV/PI) ([5]; 1 μM): 71.8 (20.2) % | dead cells (AnnexinV/PI) (UPF9T leukemia cell line; 0.1 μM): 88.2 (4.8) % | dead cells (AnnexinV/PI) (UPF9T leukemia cell line; 1 μM): 99.0 (0.6) % | dead cells (AnnexinV/PI) (UPF4D leukemia cell line; 0.1 μM): 87.3 (13.4) % | dead cells (AnnexinV/PI) (UPF4D leukemia cell line; 1 μM): 96.7 (3.9) % | Oxygen consumption rate, Basal (MCF7 cells; 5 μM, 1 h preincubation): 39.9 (5.8) pmol*min^−1 10.000 cells^−1 | Oxygen consumption rate, Maximal (MCF7 cells; 5 μM, 1 h preincubation): 20.7 (4.5) pmol*min^−1 10.000 cells^−1 | Oxygen consumption rate, Proton-leak (MCF7 cells; 5 μM, 1 h preincubation): 33.1 (4.7) pmol*min^−1 10.000 cells^−1 | Oxygen consumption rate, Basal (MCF7 cells; 5 μM, immediate addition): 52.4 (9.2) pmol*min^−1 10.000 cells^−1 | Oxygen consumption rate, Maximal (MCF7 cells; 5 μM, immediate addition): 29.7 (5.8) pmol*min^−1 10.000 cells^−1 | Oxygen consumption rate, Proton-leak (MCF7 cells; 5 μM, immediate addition): 43.5 (7.6) pmol*min^−1 10.000 cells^−1 | Oxygen consumption rate, Basal (MCF7 cells; 10 μM, 1 h preincubation): 30.9 (3.1) pmol*min^−1 10.000 cells^−1 | Oxygen consumption rate, Maximal (MCF7 cells; 10 μM, 1 h preincubation): 17.4 (3.8) pmol*min^−1 10.000 cells^−1 | Oxygen consumption rate, Proton-leak (MCF7 cells; 10 μM, 1 h preincubation): 25.9 (3.1) pmol*min^−1 10.000 cells^−1 | Oxygen consumption rate, Basal (MCF7 cells; 10 μM, immediate addition): 49.6 (9.6) pmol*min^−1 10.000 cells^−1 | Oxygen consumption rate, Maximal (MCF7 cells; 10 μM, immediate addition): 26.3 (5.4) pmol*min^−1 10.000 cells^−1 | Oxygen consumption rate, Proton-leak (MCF7 cells; 10 μM, immediate addition): 37.3 (6.1) pmol*min^−1 10.000 cells^−1 | effect on cellular respiration (MCF7 cells; OCR, Seahorse): marked inhibition of cellular respiration | efficacy against cancer cell lines (cancer cell lines): 10 to 100 nM | proportion of cells in G1 (MDA-MB-231 [6]; 24 hrs): 64.6 (2.0) | proportion of cells in G2 (MDA-MB-231 [6]; 24 hrs): 27.7 (2.3) | proportion of cells in S (MDA-MB-231 [6]; 24 hrs): 7.7 | proportion of cells in G1 (MDA-MB-231 [6]; 48 hrs): 65.0 (4.1) | proportion of cells in G2 (MDA-MB-231 [6]; 48 hrs): 25.2 (3.3) | proportion of cells in S (MDA-MB-231 [6]; 48 hrs): 9.8

O=C(O)c1ccc(-n2nc(-c3ccccc3O)nc2-c2ccccc2O)cc1 [DFX, deferasirox, reference compound]
IC50 [4]: 82.6 µM | dead cells (AnnexinV/PI) (UPF1H leukemia cell line; 1 μM): 9.9 (1.3) % | dead cells (AnnexinV/PI) (UPF1H leukemia cell line; 10 μM): 95.8 (0.2) % | dead cells (AnnexinV/PI) ([5]; 1 μM): 13.7 (5.0) % | dead cells (AnnexinV/PI) ([5]; 10 μM): 48.4 (16.2) % | dead cells (AnnexinV/PI) (UPF9T leukemia cell line; 1 μM): 13.7 (3.3) % | dead cells (AnnexinV/PI) (UPF9T leukemia cell line; 10 μM): 46.6 (5.2) % | dead cells (AnnexinV/PI) (UPF4D leukemia cell line; 1 μM): 16.9 (16.9) % | dead cells (AnnexinV/PI) (UPF4D leukemia cell line; 10 μM): 77.3 (3.5) %
